{"source": "patent US20130209582A1", "about": "“HYDROGEN IODIDE-[…] FOOD AND HYDROGEN IODIDE-CONTAINING DRUG, AND METHOD FOR PRODUCING SAME” (priority 2010, published 2013)", "test": "Gastrointestinal absorption and retention in the thyroid gland after taking hydrogen iodide into the body", "type": "in vivo", "conditions": "through gastrointestinal absorption", "experimental": "When taking hydrogen iodide into the body, the hydrogen iodide reaches to the thyroid gland within 30 minutes through gastrointestinal absorption. Since the hydrogen iodide is retained in the thyroid gland for about two hours, it is preferable to take the health food or the pharmaceutical product every two hours in a serious case. Moreover, it is preferable to take them not in large quantities at one time, but in small quantities frequently on an empty stomach."}
{"smiles": "I", "note": "[hydrogen iodide]", "values": [{"measurement": "time to reach the thyroid gland", "result": "≤ 30", "unit": "min"}]}
